In patent US10561703B2, “Method of modulating sex hormone levels using a sex hormone secretion modulator” (GEMVAX & KAEL CO., LTD., priority 2013, dated 2020):

Tested on: LH
Assay: LH level in blood (serum CLIA) after repeated sc PEP-1
Format: in vivo, SD rats
Experimental: PEP-1 (peptide of SEQ ID NO: 1), lyophilized white powder, obtained according to the method mentioned in example 1 was dissolved in 0.9% of saline, considering the correction factor of PEP-1 (purity: 94.13%, content: 92.36%, correction factor: 1.15). 50 mg/mL stock solution was further diluted into 20 mg/mL, 2 mg/mL, and 1 mg/mL with 0.9% saline, and stored at 4° C. for a week until the use.
The purpose of this example is to confirm the change of sexual hormones in blood from SD rats with 7 days repeated daily administration of SEQ ID NO: 1 peptide, PEP-1. This experiment followed the Ethics Regulation of Animal Test by KAMSI Inc. (Korea Animal Medical Science Institute). In addition, this experiment, Non-GLP experiment, referred to the MFDS (Ministry of Food and Drug Safety) notification; Agent 2013-40 (5th April 2013), Principles of Good Laboratory Practice (1997).
SPF Rats (Crlj:CD(SD)) were purchased from ORIENTBio Inc. (Mokdong-ri, Buk-myeon, Gapyeong-gun, Gyeonggi-do, Republic of Korea). 75 male (6.5 weeks old and 190˜210 g) and 75 female (6.5 weeks old and 160˜180 g) rats were monitored for 4 days, and 64 of male and female rats (each) were selected for the experiment. Raising condition is as follows; 23±3° C. of temperature, […] of relative humidity, 10˜20 times/hr of number of air changes, 12 hours (8 a.m.˜8 p.m.) of lighting with 150˜300 Lux of intensity.
64 male and female […] (mentioned above) were divided into 8 groups. Administration regimen, for example, drugs, routes, dosages, and volumes were as follows:
The detailed administration regimen is as follows; once a day, twice a day and twice a week in each experimental group. Injection initiated at 10 a.m. every day, and each rat was injected at one minute intervals. Rats in Group 9, 10, 13 and 14 were injected twice a week. Administration of high dose test agent preceded that of low dose. The volume of injection was calculated using recently measured weight of rats, and it was 5 mL/kg. Subcutaneous injection was performed as follows; assistant tilted the back of rat upward, and experimenter sterilized the back of rat with 70% alcohol, followed by subcutaneous injection of test agent with 26 G syringe.
1.4 mL of blood sample (0.7 mL of serum) was collected after measurement of weight (Day 0). Next day (1 Day), 1.4 mL of blood sample (0.7 mL of serum) was collected twice after injection of test agent (4 hrs and 8 hrs after administration of test agent). For next 6 days (Day 2˜Day 7), 1.4 mL of blood was extracted once everyday (4 hours after injection of test agent). Dose and volume of test agent of each group followed the Table 3, and injection time zone was same every day. Blood was extracted from the jugular vein, and left at room temperature for 30 minutes. Serum was separated using centrifugation (10,000 rpm for 5 minutes), and stored at −70±5° C. in Deep freezer until the use. Blood extraction from each subject was done in the same time zone every day.
A CLIA (Chemi-Luminescence Immune Assay) Kit was used to analyze Testosterone, Estradiol E2, FSH (Follicle stimulating hormone), and LH (Luteinizing hormone). Analysis was completed within 48 hrs after blood extraction (Laboratory Medicine Department, Chung-Ang University Hospital), and detailed method is as follows; One-way ANOVA was used to verify the comparison between the vehicle and PEP-1, and between different doses of PEP-1. For further analysis, Duncan test was used as parametric test and Dunnett's test as non-parametric test. p<0.05 represents the statistical significance, and all statistical analysis was carried out with SPSS 10.1.
LH was analyzed using the samples prepared from example 2. 50 μL of serum was used for analysis. Fundamentals of analysis is Two-site sandwich immunoassay based on direct chemi-luminescent. As mentioned in example 2, CLIA (Chemi-luminescence immune assay) Kit was used, following the manufacture's protocol.

**Q.** With “EARPALLTSRLRFIPK (listed as Homo sapiens) [PEP-1, hormone secretion modulator / GnRH analog]” as the sequence, how does the “LH level in blood” value (G11 Male 100 mg/kg sc 1/day x7, 5 days) read?
**A.** The value was 0.19 mIU/mL.

**Q.** And the “LH level in blood” value (G11 Male 100 mg/kg sc 1/day x7, 6 days)?
**A.** The value was 0.21 mIU/mL.

**Q.** What about the “LH level in blood” value (G11 Male 100 mg/kg sc 1/day x7, 7 days) of the same sequence?
**A.** The value was 0.21 mIU/mL.

**Q.** And the “LH level in blood” value (G11 Male 100 mg/kg sc 1/day x7, pre)?
**A.** The value was 0.1 mIU/mL.

**Q.** What about the “LH level in blood” value (G12 Female 100 mg/kg sc 1/day x7, 4 hr) of the same sequence?
**A.** Its value is 0.3 mIU/mL.

**Q.** And the “LH level in blood” value (G12 Female 100 mg/kg sc 1/day x7, 8 hr)?
**A.** Its value is 0.17 mIU/mL.

**Q.** And the “LH level in blood” value (G12 Female 100 mg/kg sc 1/day x7, 2 days)?
**A.** Its value is 0.22 mIU/mL.

**Q.** And the “LH level in blood” value (G12 Female 100 mg/kg sc 1/day x7, 3 days)?
**A.** The value was 0.22 mIU/mL.

**Q.** What about the “LH level in blood” value (G12 Female 100 mg/kg sc 1/day x7, 4 days) of the same sequence?
**A.** Its value is 0.23 mIU/mL.

**Q.** And the “LH level in blood” value (G12 Female 100 mg/kg sc 1/day x7, 5 days)?
**A.** Its value is 0.23 mIU/mL.

**Q.** What about the “LH level in blood” value (G12 Female 100 mg/kg sc 1/day x7, 6 days) of the same sequence?
**A.** Its value is 0.28 mIU/mL.

**Q.** What about the “LH level in blood” value (G12 Female 100 mg/kg sc 1/day x7, 7 days) of the same sequence?
**A.** The value was 0.27 mIU/mL.

**Q.** And the “LH level in blood” value (G12 Female 100 mg/kg sc 1/day x7, pre)?
**A.** Its value is 0.13 mIU/mL.

**Q.** What about the “LH level in blood” value (G13 Male 100 mg/kg sc 2/week x2 (days 1,7), 4 hr) of the same sequence?
**A.** The value was 1.52 mIU/mL.

**Q.** And the “LH level in blood” value (G13 Male 100 mg/kg sc 2/week x2 (days 1,7), 8 hr)?
**A.** The value was 0.21 mIU/mL.

**Q.** What about the “LH level in blood” value (G13 Male 100 mg/kg sc 2/week x2 (days 1,7), 2 days) of the same sequence?
**A.** Its value is 0.11 mIU/mL.

**Q.** What about the “LH level in blood” value (G13 Male 100 mg/kg sc 2/week x2 (days 1,7), 3 days) of the same sequence?
**A.** The value was 0.11 mIU/mL.

**Q.** And the “LH level in blood” value (G13 Male 100 mg/kg sc 2/week x2 (days 1,7), 4 days)?
**A.** The value was 0.14 mIU/mL.

**Q.** And the “LH level in blood” value (G13 Male 100 mg/kg sc 2/week x2 (days 1,7), 5 days)?
**A.** The value was 0.13 mIU/mL.

**Q.** And the “LH level in blood” value (G13 Male 100 mg/kg sc 2/week x2 (days 1,7), 6 days)?
**A.** The value was 0.11 mIU/mL.

**Q.** What about the “LH level in blood” value (G13 Male 100 mg/kg sc 2/week x2 (days 1,7), 7 days) of the same sequence?
**A.** The value was 0.99 mIU/mL.

**Q.** What about the “LH level in blood” value (G13 Male 100 mg/kg sc 2/week x2 (days 1,7), pre) of the same sequence?
**A.** Its value is 0.12 mIU/mL.

**Q.** And the “LH level in blood” value (G14 Female 100 mg/kg sc 2/week x2 (days 1,7), 4 hr)?
**A.** Its value is 0.44 mIU/mL.

**Q.** What about the “LH level in blood” value (G14 Female 100 mg/kg sc 2/week x2 (days 1,7), 8 hr) of the same sequence?
**A.** Its value is 0.18 mIU/mL.

**Q.** And the “LH level in blood” value (G14 Female 100 mg/kg sc 2/week x2 (days 1,7), 2 days)?
**A.** Its value is 0.17 mIU/mL.

**Q.** And the “LH level in blood” value (G14 Female 100 mg/kg sc 2/week x2 (days 1,7), 3 days)?
**A.** The value was 0.14 mIU/mL.

**Q.** What about the “LH level in blood” value (G14 Female 100 mg/kg sc 2/week x2 (days 1,7), 4 days) of the same sequence?
**A.** Its value is 0.09 mIU/mL.

**Q.** And the “LH level in blood” value (G14 Female 100 mg/kg sc 2/week x2 (days 1,7), 5 days)?
**A.** Its value is 0.12 mIU/mL.

**Q.** And the “LH level in blood” value (G14 Female 100 mg/kg sc 2/week x2 (days 1,7), 6 days)?
**A.** The value was 0.11 mIU/mL.

**Q.** And the “LH level in blood” value (G14 Female 100 mg/kg sc 2/week x2 (days 1,7), 7 days)?
**A.** Its value is 0.57 mIU/mL.

**Q.** What about the “LH level in blood” value (G14 Female 100 mg/kg sc 2/week x2 (days 1,7), pre) of the same sequence?
**A.** The value was 0.12 mIU/mL.

**Q.** And the “LH level in blood” value (G15 Male 250 mg/kg sc 1/day x7, 4 hr)?
**A.** Its value is 1.4 mIU/mL.

**Q.** What about the “LH level in blood” value (G15 Male 250 mg/kg sc 1/day x7, 8 hr) of the same sequence?
**A.** The value was 0.29 mIU/mL.

**Q.** And the “LH level in blood” value (G15 Male 250 mg/kg sc 1/day x7, 2 days)?
**A.** The value was 0.28 mIU/mL.

**Q.** And the “LH level in blood” value (G15 Male 250 mg/kg sc 1/day x7, 3 days)?
**A.** Its value is 0.2 mIU/mL.

**Q.** And the “LH level in blood” value (G15 Male 250 mg/kg sc 1/day x7, 4 days)?
**A.** Its value is 0.19 mIU/mL.

**Q.** What about the “LH level in blood” value (G15 Male 250 mg/kg sc 1/day x7, 5 days) of the same sequence?
**A.** Its value is 0.2 mIU/mL.

**Q.** And the “LH level in blood” value (G15 Male 250 mg/kg sc 1/day x7, 6 days)?
**A.** The value was 0.21 mIU/mL.

**Q.** And the “LH level in blood” value (G15 Male 250 mg/kg sc 1/day x7, 7 days)?
**A.** Its value is 0.23 mIU/mL.

**Q.** What about the “LH level in blood” value (G15 Male 250 mg/kg sc 1/day x7, pre) of the same sequence?
**A.** Its value is 0.12 mIU/mL.

**Q.** What about the “LH level in blood” value (G16 Female 250 mg/kg sc 1/day x7, 4 hr) of the same sequence?
**A.** Its value is 0.42 mIU/mL.

**Q.** What about the “LH level in blood” value (G16 Female 250 mg/kg sc 1/day x7, 8 hr) of the same sequence?
**A.** The value was 0.2 mIU/mL.

**Q.** And the “LH level in blood” value (G16 Female 250 mg/kg sc 1/day x7, 2 days)?
**A.** The value was 0.23 mIU/mL.

**Q.** And the “LH level in blood” value (G16 Female 250 mg/kg sc 1/day x7, 3 days)?
**A.** Its value is 0.22 mIU/mL.

**Q.** What about the “LH level in blood” value (G16 Female 250 mg/kg sc 1/day x7, 4 days) of the same sequence?
**A.** Its value is 0.23 mIU/mL.

**Q.** And the “LH level in blood” value (G16 Female 250 mg/kg sc 1/day x7, 5 days)?
**A.** The value was 0.26 mIU/mL.

**Q.** What about the “LH level in blood” value (G16 Female 250 mg/kg sc 1/day x7, 6 days) of the same sequence?
**A.** Its value is 0.28 mIU/mL.

**Q.** And the “LH level in blood” value (G16 Female 250 mg/kg sc 1/day x7, 7 days)?
**A.** The value was 0.28 mIU/mL.

**Q.** What about the “LH level in blood” value (G16 Female 250 mg/kg sc 1/day x7, pre) of the same sequence?
**A.** Its value is 0.11 mIU/mL.

**Q.** And the “Effect on LH secretion” value (male and female)?
**A.** Its value is “seems to stimulate the LH secretion”.

**Q.** What about the LH level (male, 4 hrs, all groups but vehicle, before administration 0.1 mIU/mL) of the same sequence?
**A.** The LH level was 0.5-1.5 mIU/mL.
